Among the test systems are A549; ACHN; EKVX; HCT-15; IGROV-1; MDA-MB-231; MOLT-4; Malme-3M; NCI-H226; NCI-H460; RPMI-8226; RXF 393; SF-295; SK-MEL-28; SK-MEL-5; SNB-75; TK-10; U-251; UACC-62; UO-31.
Holding throughout (test): DTP human tumour cell line panel, 48 h

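These data come from cells grown in 96-well plates and exposed to compound for 48 hours at five concentrations. GI50 marks 50% less growth.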 Active and inactive are the calls of the source. Cut-off read from the data, not from the text of the source: active = GI50 up to about 1.1 µM and inactive = higher. A value given as a limit tells only on which side of the number the result lay.

The term GI50 denotes the concentration at which growth is held to half of that of the control.

Turning to `BrCC[N+]12CCCN1CCC2`, the GI50 was 41.1 µM (inactive) in the experiment on A549; 7.26 µM (inactive) with ACHN; 21.6 µM (inactive) in the experiment with EKVX; 12.3 µM in the experiment with HCT-15; 22 µM (inactive) in the experiment with IGROV-1; 17.5 µM (inactive) with MDA-MB-231. In addition, the GI50 in the experiment with MOLT-4 was 3.43 µM (inactive); in the experiment with Malme-3M, 2.32 µM (inactive); in the experiment on NCI-H226, 33.2 µM (inactive); in the experiment with NCI-H460, 22.3 µM (inactive); in the experiment on RPMI-8226, 1.53 µM (inactive); in the experiment on RXF 393, 14 µM (inactive). Further, the GI50 in the experiment on SF-295 was > 72.9 µM (inactive); with SK-MEL-28, 10.7 µM (inactive); in the experiment on SK-MEL-5 it was 18 µM (inactive); in the experiment on SNB-75, 16.7 µM (inactive); in the experiment on TK-10, 14.5 µM (inactive); in the experiment with U-251, 16.5 µM (inactive). The GI50 is 8.83 µM (inactive) with UACC-62 and 13.8 µM (inactive) with UO-31.
As to `Cn1c(-c2cccc(N)c2)[n+](C)c2ccccc21`, the GI50 in the experiment on A549 is 40.9 µM (inactive); in the experiment on ACHN it was > 100 µM (inactive); in the experiment with EKVX it was > 100 µM (inactive); in the experiment on HCT-15, more than 100 µM; in the experiment on IGROV-1, > 100 µM (inactive); in the experiment with MDA-MB-231, > 100 µM (inactive). Moreover, the GI50 in the experiment on MOLT-4, with Malme-3M, in the experiment with NCI-H226, in the experiment with NCI-H460, in the experiment on RPMI-8226 and in the experiment on RXF 393 was > 100 µM (inactive) each time. Also, the GI50 with SF-295 is > 100 µM (inactive); in the experiment on SK-MEL-28 it was > 100 µM (inactive); with SK-MEL-5, 57.3 µM (inactive); with SNB-75, > 100 µM (inactive); in the experiment on TK-10, > 100 µM (inactive); with U-251, > 10 µM (inactive). Moreover, the GI50 in the experiment with UACC-62 and with UO-31 was > 100 µM (inactive) each time.
On to `CC(C)=CCc1ccc2[nH]c3c(c2c1)C(=O)C(=O)C(C)=C3C(O)C(C)O` (stereo not given), for which the GI50 with A549 was 21.8 µM (inactive); in the experiment on ACHN, 4.27 µM (inactive); in the experiment with EKVX it was 16.1 µM (inactive); with HCT-15, 2.32 µM; in the experiment on IGROV-1 it was 2.36 µM (inactive); in the experiment with MDA-MB-231, 3.54 µM (inactive). Moreover, the GI50 is 1.7 µM (inactive) with MOLT-4; 1.78 µM (inactive) in the experiment with Malme-3M; 15.1 µM (inactive) with NCI-H226; 14.1 µM (inactive) with NCI-H460; 1.82 µM (inactive) in the experiment with RPMI-8226; 2.17 µM (inactive) with RXF 393. The GI50 was 12.2 µM (inactive) with SF-295; 7.19 µM (inactive) in the experiment on SK-MEL-28; 2.45 µM (inactive) in the experiment on SK-MEL-5; 17.7 µM (inactive) with SNB-75; 2.52 µM (inactive) in the experiment with TK-10; 6.03 µM (inactive) in the experiment on U-251. In addition, the GI50 with UACC-62 is 5.52 µM (inactive); in the experiment with UO-31, 1.55 µM (inactive).
Take `Cc1ccc(NCC2CC/C(=C\c3ccc(Cl)cc3)C2=O)cc1` (stereo not given): the GI50 in the experiment with A549 was 49.4 µM (inactive); with ACHN it was 10.3 µM (inactive); with EKVX, 52.7 µM (inactive); in the experiment with HCT-15 it was 1.94 µM; in the experiment on IGROV-1 it was 16.6 µM (inactive); in the experiment on MDA-MB-231 it was 11.4 µM (inactive). Moreover, the GI50 with MOLT-4 is 3.84 µM (inactive); in the experiment on Malme-3M, 18 µM (inactive); in the experiment on NCI-H226 it was > 76.6 µM (inactive); in the experiment with NCI-H460, 21.7 µM (inactive); in the experiment on RPMI-8226, 0.635 µM (active); with RXF 393, 17 µM (inactive). The GI50 with SF-295 was 28.1 µM (inactive); in the experiment on SK-MEL-28 it was 15.6 µM (inactive); in the experiment with SK-MEL-5, 14.5 µM (inactive); in the experiment with SNB-75 it was > 100 µM (inactive); in the experiment with TK-10 it was 11.3 µM (inactive); in the experiment on U-251, 17 µM (inactive). The GI50 with UACC-62 is 18.4 µM (inactive); in the experiment with UO-31 it was 21.2 µM (inactive).
Take `CC(NNC(=O)c1cc[n+]([BH2-]C#N)cc1)c1ccccc1` (stereo not given): the GI50 in the experiment on A549 is > 100 µM (inactive); in the experiment on ACHN, > 100 µM (inactive); in the experiment on EKVX, > 100 µM (inactive); with HCT-15 it was more than 100 µM; with IGROV-1, > 100 µM (inactive); in the experiment on MDA-MB-231, > 100 µM (inactive). Besides, the GI50 in the experiment with MOLT-4, with Malme-3M, in the experiment on NCI-H226, with NCI-H460, in the experiment on RPMI-8226 and in the experiment on RXF 393 was > 100 µM (inactive) in each case. For the same compound, the GI50 in the experiment with SF-295, in the experiment with SK-MEL-28, in the experiment on SK-MEL-5, in the experiment with SNB-75, in the experiment with TK-10 and in the experiment on U-251 was > 100 µM (inactive) throughout. Moreover, the GI50 in the experiment with UACC-62 and with UO-31 was > 100 µM (inactive) throughout.
`COc1cc(C2NCCC(c3ccccc3)(c3ccccc3)N2)cc(OC)c1OC` (stereo not given): the GI50 with A549 was 32.4 µM (inactive); with ACHN it was 61.2 µM (inactive); in the experiment with EKVX, > 100 µM (inactive); in the experiment with HCT-15 it was 38.5 µM; in the experiment with IGROV-1, 27.2 µM (inactive); in the experiment with MDA-MB-231 it was 68.9 µM (inactive). Also, the GI50 in the experiment with MOLT-4 is > 10 µM (inactive); in the experiment on Malme-3M, 19.1 µM (inactive); in the experiment on NCI-H226, 12.7 µM (inactive); with NCI-H460 it was 9.59 µM (inactive); in the experiment with RPMI-8226 it was 7.36 µM (inactive); in the experiment with RXF 393 it was 42.7 µM (inactive). Moreover, the GI50 with SF-295 is 7.1 µM (inactive); in the experiment on SK-MEL-28, 17 µM (inactive); in the experiment with SK-MEL-5, 17.3 µM (inactive); with SNB-75, 41.7 µM (inactive); with TK-10, 9.31 µM (inactive); in the experiment on U-251, 32.9 µM (inactive). Besides, the GI50 in the experiment with UACC-62 was 25.2 µM (inactive); in the experiment with UO-31 it was 12.2 µM (inactive).
With `CC(=O)Oc1cccc2c(/C=N/NC(N)=S)ncc(C)c12`, the GI50 with A549 is 3.81 µM (inactive); in the experiment on ACHN it was 0.445 µM (active); in the experiment on EKVX, 4.72 µM (inactive); in the experiment on HCT-15, 2.88 µM; in the experiment on IGROV-1, 2.99 µM (inactive); with MDA-MB-231, 2.58 µM (inactive). Further, the GI50 with MOLT-4 was 0.385 µM (active); in the experiment on Malme-3M, 1.26 µM (inactive); with NCI-H226, 2.96 µM (inactive); in the experiment on NCI-H460, 0.966 µM (active); with RPMI-8226 it was 1.56 µM (inactive); in the experiment with RXF 393 it was 4.15 µM (inactive). Besides, the GI50 was 2.47 µM (inactive) with SF-295; 13.2 µM (inactive) with SK-MEL-28; 1.38 µM (inactive) in the experiment on SK-MEL-5; 4.03 µM (inactive) in the experiment on SNB-75; 7.64 µM (inactive) in the experiment on TK-10; 1.01 µM (active) with U-251. The GI50 in the experiment with UACC-62 is 1.17 µM (inactive); in the experiment on UO-31, 1.05 µM (active).
With `O=C(CSCC(=O)N/N=C\c1cccc([N+](=O)[O-])c1)N/N=C\c1cccc([N+](=O)[O-])c1`, the GI50 is 66.5 µM (inactive) in the experiment on A549; 14 µM (inactive) in the experiment with ACHN; 53.6 µM (inactive) in the experiment with EKVX; 25.5 µM in the experiment on HCT-15; 23.1 µM (inactive) in the experiment with IGROV-1; 18.9 µM (inactive) in the experiment with MDA-MB-231. Besides, the GI50 with MOLT-4 is > 100 µM (inactive); with Malme-3M it was 21 µM (inactive); in the experiment with NCI-H226, > 100 µM (inactive); with NCI-H460 it was 69.2 µM (inactive); in the experiment with RPMI-8226, > 100 µM (inactive); in the experiment with RXF 393 it was 49.8 µM (inactive). Moreover, the GI50 is 11.5 µM (inactive) with SF-295; > 100 µM (inactive) in the experiment on SK-MEL-28; > 100 µM (inactive) in the experiment with SK-MEL-5; 37.1 µM (inactive) with SNB-75; 17.4 µM (inactive) in the experiment on TK-10; 13.5 µM (inactive) in the experiment on U-251. The GI50 in the experiment with UACC-62 was 70.8 µM (inactive); in the experiment with UO-31, 34.4 µM (inactive).
On to `COc1cc(/C=C/c2ccc(C)cc2)cc(OC)c1OC`, for which the GI50 with A549 is 4.27 µM (inactive); in the experiment on ACHN, 6.31 µM (inactive); with EKVX, 4.7 µM (inactive); in the experiment on HCT-15, 4.08 µM; in the experiment on IGROV-1, 5.11 µM (inactive); with MDA-MB-231 it was 5 µM (inactive). For the same compound, the GI50 was 3.91 µM (inactive) with MOLT-4; 4.35 µM (inactive) in the experiment with Malme-3M; 4.29 µM (inactive) in the experiment with NCI-H226; 3.85 µM (inactive) with NCI-H460; 3.8 µM (inactive) in the experiment on RPMI-8226; 4.42 µM (inactive) with RXF 393. The GI50 in the experiment on SF-295 is 2.54 µM (inactive); with SK-MEL-28 it was 5.77 µM (inactive); in the experiment on SK-MEL-5, 3.85 µM (inactive); in the experiment with SNB-75 it was 2.58 µM (inactive); in the experiment on TK-10 it was 7.69 µM (inactive); in the experiment with U-251 it was 3.78 µM (inactive). In addition, the GI50 in the experiment with UACC-62 is 3.44 µM (inactive); with UO-31, 4.49 µM (inactive).
On to `CCOC(=O)/C=C(/C(=O)OCC)n1ccc(=O)[nH]c1=O`, for which the GI50 in the experiment with A549 was 18 µM (inactive); in the experiment with ACHN, 3.99 µM (inactive); in the experiment on EKVX it was 4.86 µM (inactive); in the experiment with HCT-15 it was 3.08 µM; in the experiment on IGROV-1, 15.2 µM (inactive); in the experiment on MDA-MB-231, 10.8 µM (inactive). The GI50 was 2.25 µM (inactive) with MOLT-4; 1.9 µM (inactive) in the experiment with Malme-3M; 6 µM (inactive) in the experiment on NCI-H226; 14.6 µM (inactive) with NCI-H460; 2.67 µM (inactive) in the experiment on RPMI-8226; 4.21 µM (inactive) in the experiment on RXF 393. In addition, the GI50 was 18.7 µM (inactive) in the experiment with SF-295; 6.56 µM (inactive) in the experiment with SK-MEL-28; 15.3 µM (inactive) with SK-MEL-5; 14 µM (inactive) in the experiment on SNB-75; 3.73 µM (inactive) in the experiment with TK-10; 13.5 µM (inactive) with U-251. Also, the GI50 was 11.8 µM (inactive) with UACC-62 and 14 µM (inactive) in the experiment with UO-31.
